Data on three compounds can be found in US20170266164A1, “NEW METHODS AND USES” (Vicore Pharma AB, priority 2014, published 2017).

One data set concerns the target T1, AT2 receptor (Rattus norvegicus, UniProt P35351).
T1 construct: Stimulation of the AT2 receptor with C21 (as defined herein) ameliorates LV fibrosis; host or cells: rat heart (in vivo, endogenous receptor)
T1 sequence (P35351 1-363): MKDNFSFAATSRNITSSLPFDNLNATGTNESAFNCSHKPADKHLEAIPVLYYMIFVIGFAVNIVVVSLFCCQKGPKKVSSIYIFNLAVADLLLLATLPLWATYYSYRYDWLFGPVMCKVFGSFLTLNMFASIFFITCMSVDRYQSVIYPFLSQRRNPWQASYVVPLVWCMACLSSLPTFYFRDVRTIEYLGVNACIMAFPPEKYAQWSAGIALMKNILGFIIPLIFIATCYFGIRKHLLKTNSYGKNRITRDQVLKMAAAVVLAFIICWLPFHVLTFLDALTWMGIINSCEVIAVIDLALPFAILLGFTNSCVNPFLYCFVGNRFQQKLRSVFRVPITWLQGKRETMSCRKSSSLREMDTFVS
Conditions: rat heart; regulation of TIMP1/MMP9 and TGF β1; cited from earlier work.

For another data set, the system named is Berk-SS mice. Nature of the data set: Urine concentrating ability (urine osmolality), glomerulopathy and survival in drug-treated sickle mice. It is filed as in vivo. The text has this: The Berk-AA mice are still relatively outbred and cannot be transplanted into BI/6 or Berk-SS mice without significant graft versus host disease. Knock-in SS (B6; 129-Hba^tm1(HBA)Tow Hbb^tm2(HBG1,HBB*)Tow/Hbb^tm3(HBG1,HBB)Tow/J) mice were kindly provided by Dr. Timothy Townes (University of Alabama, Birmingham). AT1R^−/− mice (B6.129P2Agtr1a^tm1Unc/J) were purchased from Jackson laboratories (Bar Harbor, Me.). AT2R^−/− mice were kindly provided by Dr. Tadashi Inagami (Vanderbilt University School of Medicine, Nashville, Tenn.). […]
Twenty-four hour urine was collected using metabolic cages. Urine volume was measured and then protein stabilization buffer (0.4 mM ophenanthroline, 1 mM p-hydroxymercuribenzoic acid and 0.12 mM pepstatin A and 0.5M EDTA, pH 8.0) was added to a portion of urine to stabilize Ang-11. […] Urine albumin level was measured using the mouse albumin ELISA kit (Bethyl Laboratories, Montgomery, Tex., catalog# E90-134). […] Urine osmolality was measured by vapor pressure osmometer, Vapro 5600, (Wescor Biomedical Systems, South Logan, Utah). Urine creatinine was measured using the creatinine parameter assay kit (R&D Systems, Minneapolis, Minn., catalog# KGE005). Plasma creatinine was measured using the creatinine assay kit (Abcam, Cambridge, Mass., catalog# ab65340) following the manufacturer's instructions. […]

For data set [1], the system named is erythrocytes and platelets of SCD mice. Nature of the data set: ROS analysis (CM-H2DCFDA flow cytometry) of blood cells of drug-treated SCD mice. In kind it is in vivo, mouse. How it is done: (§1) ROS was measured in WBC, RBC and platelets by mixing 0.5 μl of whole blood with 100 μl of FACS buffer (1×PBS, 0.5% bovine serum albumin), 0.1 μl of biotin anti-mouse Ter-119/erythroid Ly-76 antibody (BD Biosciences, San Jose, Calif., catalog#553672), 1 μl of Streptavidin APC-CyTM^7 (BD Biosciences, catalog#554063), 1 μl of PE anti-mouse CD45 antibody (BD Biosciences, cat#553081). […] All the tubes were incubated at room temperature for 20-30 minutes. The samples were washed with PBS at 200×g for 5 min and 100 μl of CM-H2DCFDA in 1:200 dilution was added to all sample tubes and the CM-H2DCFDA compensation tube while 100 μl of PBS was added to the rest of three compensation samples. The tubes were incubated for 30 minutes at 37° C. All the tubes were washed with 500 μl of PBS and centrifuged at 200×g for 5 min. After removing the supernatant the pellet was re-suspended in 200 μl of ice-cold PBS. Samples were stored on ice until analyzed on a BD FACSCantoTM II flow cytometer (BD Biosciences, San Jose, Calif.) by gating on the WBC, RBC and platelets. Mice were given the following drug treatments: a) Captopril (West-Ward Pharmaceutical, West Eatontown, N.J., NDC number #0143-1173-01) 0.15 mg/ml in drinking water. b) Losartan (Teva Pharmaceuticals USA Inc, North Wales, Pa., -NDC number#00937366-98) 0.3-0.6 mg/ml in drinking water. c) C21 (Vicore Pharma AB, […], Sweden; Batch/Lot number # A11202910) 10 mg/kg/day in drinking water. Losartan and captopril water bottles were changed twice a week with fresh drugs and C21 was changed daily.

The subject of a further data set is Angiotensin-II. Nature of the data set: Plasma and urine Angiotensin-II level (EIA) in drug-treated sickle mice. It is filed as in vivo, mouse. Conditions: compared to untreated Berk-SS controls. How it is done: Urine and plasma Angiotensin-II level was measured by using the Angiotensin II EIA kit (Cayman Chemical Company, Ann Arbor, Mich., catalog# A05880) following the manufacturer's instructions.
Mice were given the following drug treatments: a) Captopril (West-Ward Pharmaceutical, West Eatontown, N.J., NDC number #0143-1173-01) 0.15 mg/ml in drinking water. b) Losartan (Teva Pharmaceuticals USA Inc, North Wales, Pa., -NDC number#00937366-98) 0.3-0.6 mg/ml in drinking water. c) C21 (Vicore Pharma AB, Haraldsgatan 5, S-413 14 Goteborg, Sweden; Batch/Lot number # A11202910) 10 mg/kg/day in drinking water. Losartan and captopril water bottles were changed twice a week with fresh drugs and C21 was changed daily.

Another data set concerns Berk-SS/WT chimeric mice. Nature of the data set: Urine albumin, urine osmolality and glomerular disease in drug-treated sickle hematopoietic chimeras. In kind it is in vivo, mouse. Conditions: for albuminuria: Berk-SS/WT chimeric mice vs untreated chimeras; for glomerular disease: hematopoietic SCD chimeras; for UCA (urine osmolality): sickle chimeric mice, after 8 hour water deprivation. From the text:
The Berk-AA mice are still relatively outbred and cannot be transplanted into BI/6 or Berk-SS mice without significant graft versus host disease. Knock-in SS (B6; 129-Hba^tm1(HBA)Tow Hbb^tm2(HBG1,HBB*)Tow/Hbb^tm3(HBG1,HBB)Tow/J) mice were kindly provided by Dr. Timothy Townes (University of Alabama, Birmingham). AT1R^-/- mice ([…]1Unc/J) were purchased from Jackson laboratories (Bar Harbor, Me.). AT2R^-/- mice were kindly provided by Dr. […] (Vanderbilt University School of Medicine, Nashville, Tenn.). Bone marrow from donor Berkeley sickle mice (or 057BI/6 control mice) were distributed 1:5 among the 057BI/6, AT1R^-/- and AT2R^-/- lethally irradiated (1175 cGy) recipient mice. All animals were maintained in the Cincinnati Children's Research Foundation's vivarium using protocols approved by the Institutional Animal Care and Use Committee. Twenty-four hour urine was collected using metabolic cages. Urine volume was measured and then protein stabilization buffer (0.4 mM ophenanthroline, 1 mM p-hydroxymercuribenzoic acid and 0.12 mM pepstatin A and 0.5M EDTA, pH 8.0) was added to a portion of urine to stabilize Ang-11. The rest of the urine was used for other analyses, including GFR, albumin, osmolality. Temporal assessments of urine albumin, creatinine and osmolality were made after an 8 hour water deprivation in SCD chimeric mice. […] Therefore, in Berk-SS mice (untransplanted/“straight SCD” native sickle mice) no water deprivation was performed prior to urine collection. Urine albumin level was measured using the mouse albumin ELISA kit (Bethyl Laboratories, Montgomery, Tex., catalog# E90-134). The ELISA was performed in a 96-well clear micro-plate (R&D systems, Minneapolis, Minn., catalog # DY990) as per manufacturer's instructions. Urine osmolality was measured by vapor pressure osmometer, Vapro 5600, (Wescor Biomedical Systems, South Logan, Utah). Urine creatinine was measured using the creatinine parameter assay kit (R&D Systems, Minneapolis, Minn., catalog# KGE005). Plasma creatinine was measured using the creatinine assay kit (Abcam, Cambridge, Mass., catalog# ab65340) following the manufacturer's instructions. Mice were given the following drug treatments: a) Captopril (West-Ward Pharmaceutical, West Eatontown, N.J., NDC number #0143-1173-01) 0.15 mg/ml in drinking water. b) Losartan (Teva Pharmaceuticals USA Inc, North Wales, Pa., -NDC number#00937366-98) 0.3-0.6 mg/ml in drinking water. c) C21 (Vicore Pharma AB, […], Sweden; Batch/Lot number # A11202910) 10 mg/kg/day in drinking water. Losartan and captopril water bottles were changed twice a week with fresh drugs and C21 was changed daily. In order to determine the role of the angiotensin receptors in SN, the inventors generated hematopoietic chimeric animals through bone marrow (BM) transplantation. First, they transplanted BM from Berk-SS mice into WT [057BI/6 (CD45.2+) or congenic CD45.1+BI/6] mice; mice that developed >95% sickle chimerism were followed for 6-9 months. Berk-SS/WT chimeras also developed hyperangiotensinemia followed by SN. Like in native (untransplanted) sickle mice, losartan or captopril ameliorated glomerular disease, but worsened UCA of hematopoietic SCD chimeras.

In data set [2] the test system is RBC and platelets of Berk-SS/WT hematopoietic chimeras. Nature of the data set: ROS analysis (CM-H2DCFDA flow cytometry) of blood cells of drug-treated Berk-SS chimeras. It is filed as in vivo, mouse. How it is done:
as §1

SMILES strings stand for the structures. “Also recorded” adds a separate entry of the source.

On to `CCCCOC(=O)NS(=O)(=O)c1sc(CC(C)C)cc1-c1ccc(Cn2ccnc2)cc1` [Compound C21, N-butyloxycarbonyl-3-(4-imidazol-1-ylmethylphenyl)-5-iso-butylthiophene-2-sulfonamide], for which the LV fibrosis entry at AT2 receptor was “ameliorates”. Also, the “urine concentrating ability (UCA)” value with Berk-SS mice (sickle (SCD) mice, drug in drinking water) is recorded as “improve”.
For the compound `C[C@H](CS)C(=O)N1CCC[C@H]1C(=O)O` [captopril], in data set [1], the “erythrocyte ROS” value was “significantly lowered; also recorded: specifically lowered” and the “platelet ROS” value was “unaffected”. Also, in the data set with Angiotensin-II, the “plasma AngII levels” value was “lower; also recorded: reduced” and the “urine AngII levels” value is on record as “lower; also recorded: reduced”. For the same compound, the mortality entry with Berk-SS mice (Berk-SS mice on drug from 4 weeks of age, from severe hyposthenuria and dehydration) is reported as “high mortality”. Further, in the data set with Berk-SS/WT chimeric mice, the albuminuria entry was “did not develop albuminuria”, the glomerular disease result was “ameliorated” and the “UCA (urine osmolality)” value was “worsened”. For the same compound, in data set [2], the “RBC (erythrocyte) ROS” value is “significantly lowered” and the “platelet ROS” value is given as “not platelets; also recorded: unchanged”.
In the case of `CCCCc1nc(Cl)c(CO)n1Cc1ccc(-c2ccccc2-c2nn[nH]n2)cc1` [losartan], in data set [1], the “erythrocyte ROS” value is reported as “significantly lowered; also recorded: specifically lowered” and the “platelet ROS” value was “unaffected”. Also, in the data set on Angiotensin-II, the “plasma AngII levels” value is on record as “lower; also recorded: reduced” and the “urine AngII levels” value is “lower; also recorded: reduced”. For the same compound, in the data set with Berk-SS/WT chimeric mice, the albuminuria result was “did not develop albuminuria”, the glomerular disease result is on record as “ameliorated” and the “UCA (urine osmolality)” value was “worsened”. Moreover, in data set [2], the “RBC (erythrocyte) ROS” value is reported as “significantly lowered” and the “platelet ROS” value is reported as “not platelets; also recorded: unchanged”.
